Source: PubChem BioAssay AID248 (DTP/NCI, 2004)
“And” between values parts separate entries of the source, which are not always exact repeats. Equal values may be shown once. Toxic doses and inconclusive results are not listed. Rule as the data show it: active = T/C of 150% or more; inactive = T/C below 125%.

System: L1210 leukemia ip in BDF1 mice, survival T/C
Assay: NCI In Vivo Anticancer Drug Screen. Data for tumor model L1210 Leukemia (intraperitoneal) in B6D2F1 (BDF1) mice
Conditions: endpoint: mean survival time, higher = longer survival
Summary of the method: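 In this screen, tumor-bearing mice given compound are compared to those given vehicle, and their survival values are reported as a treated-to-control quotient.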

[1] = dose: 100.0 mg/kg/injection, schedule: Q01DX009 (ip), vehicle: saline with Tween-80
[2] = dose: 100.0 mg/kg/injection, schedule: Q04DX003 (ip), vehicle: saline with Tween-80
[3] = dose: 200.0 mg/kg/injection, schedule: Q01DX009 (ip), vehicle: saline with Tween-80
[4] = dose: 200.0 mg/kg/injection, schedule: Q04DX003 (ip), vehicle: saline with Tween-80
[5] = dose: 400.0 mg/kg/injection, schedule: Q01DX009 (ip), vehicle: saline with Tween-80
[6] = dose: 400.0 mg/kg/injection, schedule: Q04DX003 (ip), vehicle: saline with Tween-80
[7] = dose: 50.0 mg/kg/injection, schedule: Q01DX009 (ip), vehicle: saline
[8] = dose: 100.0 mg/kg/injection, schedule: Q01DX009 (ip), vehicle: saline
[9] = dose: 100.0 mg/kg/injection, schedule: Q01DX001 (ip), vehicle: saline
[10] = dose: 200.0 mg/kg/injection, schedule: Q01DX001 (ip), vehicle: saline
[11] = dose: 200.0 mg/kg/injection, schedule: Q01DX009 (ip), vehicle: saline
[12] = dose: 400.0 mg/kg/injection, schedule: Q01DX009 (ip), vehicle: saline
[13] = dose: 100.0 mg/kg/injection, schedule: Q04DX003 (ip), vehicle: carboxymethylcellulose (CMC)
[14] = dose: 200.0 mg/kg/injection, schedule: Q04DX003 (ip), vehicle: carboxymethylcellulose (CMC)
[15] = dose: 400.0 mg/kg/injection, schedule: Q04DX003 (ip), vehicle: carboxymethylcellulose (CMC)
[16] = dose: 100.0 mg/kg/injection, schedule: Q04DX002 (ip), vehicle: Klucel (hydroxypropylcellulose) (HPC)

Measured: T/C

OC1CSCSC1
inactive: [1] 98 % of control | [2] 98 % of control | [3] 94 % of control | [4] 98 % of control | [5] 94 % of control | [6] 98 % of control

CC1([CH2][Hg][Cl])Cc2ccccc2O1 (configuration not stated)
inactive: dose: 6.25 mg/kg/injection, schedule: Q04DX003 (ip), vehicle: saline with Tween-80 96 % of control

CNNC(=O)NC
inactive: [7] 109 % of control | [8] 94 % of control

CC(C)(O)CCNc1ncnc2c1ncn2C1OC(CO)C(O)C1O (configuration not stated)
inactive: dose: 25.0 mg/kg/injection, schedule: Q01DX005 (ip), vehicle: water 97 % of control and 104 % of control | dose: 50.0 mg/kg/injection, schedule: Q01DX005 (ip), vehicle: water 103 % of control and 110 % of control | dose: 100.0 mg/kg/injection, schedule: Q01DX005 (ip), vehicle: water 106 % of control and 109 % of control

CC1=C2C(=C(CBr)OS1(=O)=O)C(=O)c1ccccc12
inactive: [1] 92 % of control | [2] 96 % of control | [3] 92 % of control | [4] 103 % of control | [5] 95 % of control | [6] 94 % of control

COc1ccc(C2NC(=O)NC2=O)cc1 (configuration not stated)
inactive: dose: 50.0 mg/kg/injection, schedule: Q01DX001 (ip), vehicle: saline 105 % of control | [9] 105 % of control | [2] 108 % of control | [10] 102 % of control | [4] 103 % of control | dose: 400.0 mg/kg/injection, schedule: Q01DX001 (ip), vehicle: saline 111 % of control | [6] 92 % of control

CC(C)NNC(=O)C(C)O (configuration not stated)
inactive: dose: 25.0 mg/kg/injection, schedule: Q01DX009 (ip), vehicle: saline 93 % of control | dose: 25.0 mg/kg/injection, schedule: Q04DX003 (ip), vehicle: saline 109 % of control | [7] 90 % of control | dose: 50.0 mg/kg/injection, schedule: Q04DX003 (ip), vehicle: saline 96 % of control | [8] 97 % of control | dose: 100.0 mg/kg/injection, schedule: Q04DX003 (ip), vehicle: saline 93 % of control | [11] 87 % of control | dose: 200.0 mg/kg/injection, schedule: Q04DX003 (ip), vehicle: saline 112 % of control | [12] 95 % of control | dose: 400.0 mg/kg/injection, schedule: Q04DX003 (ip), vehicle: saline 96 % of control

C=C(C)[C@H]1Cc2c(ccc3c2O[C@@H]2COc4cc(OC)c(OC)cc4[C@@H]2C3=O)O1
inactive: dose: 0.25 mg/kg/injection, schedule: Q01DX Z (ip), vehicle: other 95 % of control | dose: 0.5 mg/kg/injection, schedule: Q01DX Z (ip), vehicle: other 97 % of control | dose: 0.5 mg/kg/injection, schedule: Q02DX Z (ip), vehicle: water 96 % of control | dose: 0.75 mg/kg/injection, schedule: Q01DX Z (ip), vehicle: other 95 % of control | dose: 0.75 mg/kg/injection, schedule: Q02DX Z (ip), vehicle: water 101 % of control | dose: 1.0 mg/kg/injection, schedule: Q01DX Z (ip), vehicle: other 88 % of control | dose: 1.0 mg/kg/injection, schedule: Q02DX Z (ip), vehicle: water 102 % of control | dose: 2.0 mg/kg/injection, schedule: Q01DX015 (ip), vehicle: saline 97 % of control | dose: 2.0 mg/kg/injection, schedule: Q02DX Z (ip), vehicle: water 107 % of control | dose: 4.0 mg/kg/injection, schedule: Q01DX015 (ip), vehicle: saline 101 % of control | dose: 8.0 mg/kg/injection, schedule: Q01DX015 (ip), vehicle: saline 109 % of control | dose: 16.0 mg/kg/injection, schedule: Q01DX015 (ip), vehicle: saline 109 % of control

CCOC(=O)C(C(=O)O)C(C)C (configuration not stated)
inactive: [9] 97 % of control | [10] 93 % of control

COC(=O)c1ccc[n+](CC(=O)c2ccccc2)c1
inactive: [2] 95 % of control | [4] 88 % of control

O=C1c2cccc3cc([N+](=O)[O-])cc(c23)C(=O)N1Cc1cccnc1
inactive: [13] 93 % of control | [14] 90 % of control | [15] 97 % of control

O=C(Oc1cc(Cl)c(S(=O)(=O)F)cc1Cl)c1ccccc1Cl
inactive: [13] 88 % of control | [14] 90 % of control | [15] 88 % of control

CN(C)Cc1cc(Cl)ccc1O
inactive: [16] 100 % of control

O=S(=O)(Nc1ccccc1F)c1ccc2ccccc2c1
inactive: [8] 93 % of control | [11] 93 % of control | [12] 98 % of control

COC1OC2COC(c3ccccc3)OC2C(NC(C)=O)C1O (configuration not stated)
inactive: [16] 101 % of control | dose: 200.0 mg/kg/injection, schedule: Q04DX002 (ip), vehicle: Klucel (hydroxypropylcellulose) (HPC) 111 % of control | dose: 400.0 mg/kg/injection, schedule: Q04DX002 (ip), vehicle: Klucel (hydroxypropylcellulose) (HPC) 105 % of control

OCC1(c2ccccc2)CCN(Cc2ccccc2)CC1
inactive: dose: 100.0 mg/kg/injection, schedule: Q01DX009 (ip), vehicle: Klucel (hydroxypropylcellulose) (HPC) 91 % of control | dose: 100.0 mg/kg/injection, schedule: Q04DX003 (ip), vehicle: Klucel (hydroxypropylcellulose) (HPC) 104 % of control | dose: 200.0 mg/kg/injection, schedule: Q01DX009 (ip), vehicle: Klucel (hydroxypropylcellulose) (HPC) 96 % of control | dose: 200.0 mg/kg/injection, schedule: Q04DX003 (ip), vehicle: Klucel (hydroxypropylcellulose) (HPC) 101 % of control | dose: 400.0 mg/kg/injection, schedule: Q01DX009 (ip), vehicle: Klucel (hydroxypropylcellulose) (HPC) 91 % of control | dose: 400.0 mg/kg/injection, schedule: Q04DX003 (ip), vehicle: Klucel (hydroxypropylcellulose) (HPC) 97 % of control

ClC(CN1CCCCC1)C(Cl)c1ccccc1 (configuration not stated)
inactive: [7] 90 % of control | dose: 50.0 mg/kg/injection, schedule: Q04DX003 (ip), vehicle: saline sonified 96 % of control | [8] 91 % of control | dose: 100.0 mg/kg/injection, schedule: Q04DX003 (ip), vehicle: saline sonified 91 % of control | dose: 200.0 mg/kg/injection, schedule: Q04DX003 (ip), vehicle: saline sonified 101 % of control

O=C(c1ccc(Cl)cc1)C(C(c1ccc([N+](=O)[O-])cc1)N1CCCCC1)N1CCCCC1 (configuration not stated)
inactive: dose: 12.5 mg/kg/injection, schedule: Q01DX001 (ip), vehicle: Klucel (hydroxypropylcellulose) (HPC) 98 % of control | dose: 12.5 mg/kg/injection, schedule: Q01DX009 (ip), vehicle: Klucel (hydroxypropylcellulose) (HPC) 102 % of control | dose: 25.0 mg/kg/injection, schedule: Q01DX001 (ip), vehicle: Klucel (hydroxypropylcellulose) (HPC) 104 % of control | dose: 25.0 mg/kg/injection, schedule: Q01DX009 (ip), vehicle: Klucel (hydroxypropylcellulose) (HPC) 98 % of control | dose: 50.0 mg/kg/injection, schedule: Q01DX001 (ip), vehicle: Klucel (hydroxypropylcellulose) (HPC) 102 % of control | dose: 50.0 mg/kg/injection, schedule: Q01DX009 (ip), vehicle: Klucel (hydroxypropylcellulose) (HPC) 101 % of control | dose: 400.0 mg/kg/injection, schedule: Q01DX001 (ip), vehicle: Klucel (hydroxypropylcellulose) (HPC) 92 % of control
